# Experimental data from patent publication US9579328B2, “Prostaglandin and vasoconstrictor pharmaceutical compositions and methods of use” (ALLERGAN, INC., priority 2012, dated 2017).
# Where a name gives a salt, the structure may show the parent alone.
# Columns and labels:
# [1] = tested on: eyes of conscious Beagle dogs; conditions: cited from earlier work; for conjunctival hyperemia or adverse ocular effects at baseline (time 0): 1% (w/v) topical, dog eyes; for effect of L-NAME on elicited ocular surface hyperemia: L-NAME 1% treated eyes, 0-6 h
# [2] = tested on: human cultured conjunctiva-derived epithelial cells; conditions: cited from earlier work; for direct stimulation of inflammatory pathways involving adhesion molecules or class II antigens: in vitro; for toxicity observed: primarily related to the concentration of benzalkonium chloride
# [3] = tested on: rabbit isolated jugular veins; experiment: Vasorelaxation in histamine-precontracted rabbit isolated jugular veins; type: cell-based
# Excerpt: FIG. 3. Concentration-response curves for (FIG. 3A) bimatoprost and (FIG. 3B) latanoprost free acid in histamine-precontracted endothelium-intact and endothelium-denuded rabbit isolated jugular veins. Results are expressed as mean±S.E.M. of 5-6 animals. FIG. 3A adapted from Chen J et al., Invest Ophthalmol Vis Sci 2004; 45:ARVO E-Abstract 2609; FIG. 3B extends results reported in Chen J et al., Invest Ophthalmol Vis Sci 2004; 45:ARVO E-Abstract 2609; and Pharmacology Review of New Drug Application 21-275. FDA/Center for Drug Evaluation and Research. 2001;Part 1 and Part 2:1-107. Available online at http://www.fda.gov/cder/foi/nda/2001/21275_Lumigan.htm.
# FIG. 4. Concentration-response curves for (FIG. 4A) bimatoprost and (FIG. 4B) latanoprost free acid in the presence or absence of indomethacin in endothelium-intact rabbit isolated jugular veins. Results are expressed as mean±S.E.M. of 7 animals and extend previous results reported in Pharmacology Review of New Drug Application 21-275. FDA/Center for Drug Evaluation and Research. 2001;Part 1 and Part 2:1-107. Available online at http://www.fda.gov/cder/foi/nda/2001/21275_Lumigan.htm.
# FIG. 5. Concentration-response curves for (FIG. 5A) bimatoprost and (FIG. 5B) latanoprost free acid in the presence of 100 μM L-NAME or 100 (μM D-NAME control in endothelium-intact rabbit isolated jugular veins. Results are expressed as mean±S.E.M. of 6 animals. *P≦0.05, compared to responses in D-NAME pretreated tissues at the same concentration, paired t-test.
# The pharmacological mechanism of ocular surface hyperemia elicited by bimatoprost and latanoprost was investigated using the rabbit jugular vein preparation as a quantitative in vitro model (Chen J. et al., Br J Pharmacol 1995; 116:3035-3041). In these studies, tissues were suspended in jacketed organ baths containing Krebs buffer with 1 μM indomethacin (endothelium-intact and -denuded) or in its absence (endothelium-intact) and precontracted with 3 μM histamine. Vasorelaxant and contractile activity were determined as a percentage (%) of the control tone elicited by histamine. Statistical comparisons for the vasorelaxant activity consisted of testing for significance of difference at each of the concentrations tested using the Student'-s t-test for unpaired samples (indomethacin vs no indomethacin) and paired samples (L-NAME vs D-NAME). Differences were considered statistically significant for P-values ≦0.05.
# Indomethacin is a cyclooxygenase inhibitor that is routinely used in prostanoid receptor assays (Chen J et al., Current protocols in pharmacology. New York: John Wiley & Sons, Inc., 2001; 4.18.1-4.18.41). Studies of intact and viable isolated tissues, such as the rabbit jejunum (Ferreira S H, Herman A G, Vane J R., Br J Pharmacol 1976; 56:469-477) and human bronchial muscle (Haye-Legrand I, Cerrina J, Raffestin B et al., J Pharmacol Exp Ther 1986; 239:536-541), found the basal output of prostaglandins to be 8-23 pg/mg of tissue at baseline or over 30 min collection periods. In the presence of 1.7 and 2.79 μM indomethacin, the amounts of prostaglandins generated in isolated tissues become negligible (Botting J H, Salzmann R., Br J Pharmacol 1974; 50:119-124; Haye-Legrand I, Cerrina J, Raffestin B et al., J Pharmacol Exp Ther 1986; 239:536-541). The 1 μM concentration of indomethacin in the tissue bath, in our experience, is sufficient to prevent biosynthesis of prostanoids within isolated vascular tissue preparations (Alster P, Wennmalm Å., Eur J Pharmacol 1983; 86:441-446; Chen J et al., Current protocols in pharmacology. New York: John Wiley & Sons, Inc., 2001; 4.18.1-4.18.41). At substantially higher concentrations, indomethacin has been reported to lose selectivity for prostanoid biosynthesis inhibition (Aboulafia J et al., Br J Pharmacol 1976; 58:223-228; Goodfriend T L, Simpson R U., Br J Pharmacol 1981; 72:247-255; Northover B J, Br J Pharmacol 1971; 41:540-551; Sawdy R et al., Br J Pharmacol 1998; 125:1212-1217). […]
# [4] = tested on: patients with glaucoma or ocular hypertension; conditions: 1 year; bimatoprost 0.03% once or twice daily, timolol maleate 0.5% twice daily; subset of 310 patients; cited from earlier work
# rabbit eye conjunctiva = conditions: topical dose of 10 μg (0.03%, 30 μl); cited from earlier work
# [5] = tested on: rabbit isolated jugular veins; conditions: rabbit jugular vein; cited from earlier work
# [6] = bimatoprost 0.1%, latanoprost 0.005%, PGE2 0.01%
smiles,measurement,setting,value
COC(=O)[C@H](N)CCCN=C(N)N[N+](=O)[O-] [D-NAME],conjunctival hyperemia or adverse ocular effects at baseline (time 0),[1],did not produce conjunctival hyperemia or any adverse ocular effects
CC(C)OC(=O)CCC/C=C\C[C@@H]1[C@@H](/C=C/[C@@H](O)COc2cccc(C(F)(F)F)c2)[C@H](O)C[C@@H]1O [travoprost],direct stimulation of inflammatory pathways involving adhesion molecules or class II antigens,[2],None of the drugs appeared to induce direct stimulation of inflammatory pathways
same,toxicity observed,[2],mild
"CCCCC[C@H](O)/C=C/[C@H]1[C@H](O)CC(=O)[C@@H]1C/C=C\CCCC(=O)O [PGE2, prostaglandin E2]",effect of L-NAME on elicited ocular surface hyperemia,[1]; [6],had no effect
same,ocular surface hyperemia severity,"[1]; PGE2 0.01%, both D-NAME- and L-NAME-treated eyes, scale 0=none to 3=severe",mild to moderate
O=C(O)CCC/C=C\C[C@@H]1[C@H](CNNC(=O)Nc2ccccc2)[C@H]2CC[C@@H]1O2 [SQ 29548],effect of TP antagonist on reversal of the vasorelaxant response to latanoprost free acid,[3]; latanoprost free acid up to 10^−6 M,did not block the reversal of the vasorelaxant response
"O=C(O)CCC/C=C\C[C@@H]1[C@@H](CC[C@@H](O)CCc2ccccc2)[C@H](O)C[C@@H]1O [Latanoprost free acid, latanoprost free acid]",contraction of the endothelium-denuded preparation,[3]; concentration range of 10^−10 to 10^−6 M,did not contract
same,response in endothelium-denuded veins,"[3]; endothelium-denuded, 10^−5M, latanoprost free acid",only contractions
same,vasorelaxant response in presence of 100 μM L-NAME compared to 100 μM D-NAME control,"[3]; endothelium-intact histamine precontracted tissues, P≦0.05 paired t-test",significantly inhibited
same,concentration of maximal vasorelaxation,[3]; endothelium-intact preparation,10^−7 M
same,response at higher concentrations of 10^−6M and 10^−5M,[3]; endothelium-intact preparation,reversal of the relaxant effects
same,difference in effects with and without 1 μM indomethacin,"[3]; endothelium-intact tissues, each concentration tested",no statistically significant differences
"CC(C)(C)NC[C@H](O)COc1nsnc1N1CCOCC1 [timolol maleate, (−)-1-tert-butylamino-3-[(4-morpholino-1,2,5-thiodiazol-3yl)oxy]-2-propanol maleate]",mean laser-flare photometry readings and mean changes from baseline,[4],no significant differences among the treatment groups
CC(C)OC(=O)CCC/C=C\C[C@@H]1[C@@H](CC[C@@H](O)CCc2ccccc2)[C@H](O)C[C@@H]1O [latanoprost],direct stimulation of inflammatory pathways involving adhesion molecules or class II antigens,[2],None of the drugs appeared to induce direct stimulation of inflammatory pathways
same,toxicity observed,[2],mild
same,ocular surface hyperemic response (severity),"[1]; D-NAME treated control eyes, bimatoprost 0.1%, latanoprost 0.005%, scale 0=none, 0.5=trace, 1=mild, 2=moderate, 3=severe",trace to mild
same,effect of L-NAME on elicited ocular surface hyperemia,[1]; [6],blocked
same,acute effects on blood flow in the conjunctiva,rabbit eye conjunctiva,no significant acute effects
"COC(=O)[C@@H](N)CCCNC(=N)N[N+](=O)[O-] [L-NAME, L-N^G-nitroarginine methyl ester]",conjunctival hyperemia or adverse ocular effects at baseline (time 0),[1],did not produce conjunctival hyperemia or any adverse ocular effects
"CCCCC[C@H](O)/C=C/[C@@H]1[C@@H](C/C=C\CCCC(=O)O)[C@@H](O)C[C@H]1O [PGF2a, prostaglandin F2a]","inhibition of response by L-NAME at 100 μM, compared to bimatoprost and latanoprost free acid",[5],less effective
